Assay results published in patent US20110269699A1, “CANCER THERAPY” (priority 2008, published 2011).

Tests used:
Eμ-myc/Bcl-2 lymphomas [1] = test: In vitro cell death analysis (propidium iodide staining, loss of MOMP); format: cell-based, mouse; conditions: 24-h dose-response assay; Bcl-2 overexpressing
Procedure: Three different primary Eμ-myc lymphomas overexpressing Bcl-2 and control vector-transduced Eμ-myc cells were tested for sensitivity to the histone deacetylase inhibitors (HDACi) oxamflatin and romidepsin.
(§1) The primary function of prosurvival Bcl-2 proteins is to inhibit the activity of Bak and Bax proteins and thereby protect the mitochondrial membrane from damage (Cory et al., Nat. Rev. Cancer 2:647-656, 2002). To determine if the induction of apoptosis mediated by romidepsin in 4242Eμ-myc/Bcl-2 and 229Eμ-myc/Bcl-2 lymphomas was via perturbation of the mitochondrial membrane or through some other mechanism, HDACi-induced mitochondrial outer membrane permeabilization (MOMP) was quantitated by staining with tetramethylrhodamine ethyl ester (Molecular Probes).
(§2) […] Viability of cells as measured by trypan blue exclusion assay, propidium iodide uptake, Annexin V staining, cell cycle analysis, or tetramethylrhodamine ethyl ester staining were done as described (Lindemann et al., Proc. Nat. Acad. Sci. USA 104:8071-8078, 2007).

[2] = test system: 4242Eμ-myc/Bcl-2 lymphomas; test: In vitro cell death analysis, time course; format: cell-based, mouse; conditions: 3.0 nmol/L; up to 72 h
Source text: as §1, §2

[3] = test system: 229Eμ-myc/Bcl-2 lymphomas; test: In vitro cell death analysis, time course; format: cell-based, mouse
Source text: as §1
Next, the cell cycle profiles of Eμ-myc/Bcl-2 lymphomas treated with oxamflatin and romidepsin over 3 days were assessed.
Eμ-myc lymphoma cells (5×10^5/mL) were incubated in the presence of the indicated compounds for 20 h in 1 mL cell culture medium in 24-well plates (Greiner Bio-One). Viability of cells as measured by trypan blue exclusion assay, propidium iodide uptake, Annexin V staining, cell cycle analysis, or tetramethylrhodamine ethyl ester staining were done as described (Lindemann et al., Proc. Nat. Acad. Sci. USA 104:8071-8078, 2007).

[4] = test system: 226Eμ-myc/Bcl-2 lymphomas; test: In vitro cell death analysis, time course; format: cell-based, mouse; conditions: 3.0 nmol/L; up to 72 h
[5] = test system: 4242Eμ-myc/Bcl-XL lymphomas; test: In vitro cell death analysis of Bcl-XL overexpressing lymphomas; format: cell-based, mouse
Source text: To determine if increased expression of Bcl-XL could confer resistance to romidepsin, 4242Eμ-myc/Bcl-XL lymphomas were produced and tested for sensitivity to HDACi.
as §2

[6] = test system: acetylated histones H3 and H4; test: Western blot analysis of histone acetylation status; format: cell-based, mouse; conditions: for histone acetylation: 3.0 nmol/L, 2, 8, 24 h
Procedure: Eμ-myc lymphoma cells were lysed in lysis buffer [0.15 mol/L NaCl, 10 mmol/L Tris-HCl (pH 7.4), 5 μmol/L EDTA, 1% Triton X-100] supplemented with protease inhibitors (leupeptin, pepstatin, and phenylmethylsulfonyl fluoride; Sigma-Aldrich) as described previously (Lindemann et al., Proc. Nat. Acad. Sci. USA 104:8071-8078, 2007). Proteins (30-50 μg) were separated on 10% or 15% SDS polyacrylamide gels electroblotted onto Immobilon-P […] membranes (Millipore). Membranes were incubated with the following antibodies: anti-mouse Bcl-2 (BD PharMingen), anti-mouse Bcl-XL (BD PharMingen), anti-mouse Bcl-w (Chemicon Australia), anti-mouse Mcl-1 (Rockland), anti-mouse A1 (Sapphire Biosciences), anti-Flag tag (Sigma-Aldrich), anti-acetylated histone H3 and antiacetylated histone H4 (Upstate Biosystems), anti-β actin (Sigma-Aldrich), and anti-tubulin (Sigma-Aldrich) overnight at 4° C. followed by subsequent incubation with horseradish peroxidase-conjugated secondary antibodies (DAKO) Immunoreactive bands were visualized by enhanced chemiluminescence (Amersham).

[7] = test system: 102Eμ-myc/Bcl-2 lymphomas; test: In vivo apoptosis assay; design: species or system C57BL/6 mice; conditions: 5.6 mg/kg i.v.; even at 48 h
Procedure: (§3) For in vivo apoptosis assays, C57BL/6 mice were injected with Eμ-myc lymphomas (5×10^5 cells per animal) and after 10 to 15 days on which lymph nodes became well-palpable romidepsin (5.6 mg/kg) was administered i.v. After the indicated time points, mice were sacrificed and cells were harvested from brachial lymph nodes for fluorescence-activated cell sorting-based assays to measure apoptotic signaling (Lindemann et al., Proc. Nat. Acad. Sci. USA 104:8071-8078, 2007). To assess therapeutic efficacy of romidepsin, C57BL/6 mice were injected with Eμ-myc lymphomas of the indicated genotypes i.v. (5×10^5 cells per animal). Peripheral WBC counts were then monitored until they exceeded 13×10^3/μL (Sysmex Hematology Analyzer K-1000) and romidepsin was administered at 5.6 mg/kg i.v. once every 4 days for a total of four injections. […] Mice in the control cohort received the corresponding amount of vehicle. Cohorts consisted of 8 to 11 mice each, 2 to 3 independently derived lymphomas per genotype. Peripheral WBC counts and body weights were recorded weekly. On signs of major distress or when lymphomas were relapsing as indicated by enlarged brachioaxial lymph nodes, mice were euthanized and a necropsy was done. For analysis of therapeutic efficacy, tumor-induced mortality “events” were recorded. Kaplan-Meier analysis was done and comparisons made using the log-rank (Mantel-Cox) test (MedCalc software version 8.0.2.0).

[8] = test system: 226Eμ-myc/Bcl-2 lymphomas; test: In vivo apoptosis assay; design: species or system C57BL/6 mice; conditions: 5.6 mg/kg i.v.; even at 36 h
Procedure: as §3

[9] = test system: 229Eμ-myc/Bcl-2 lymphomas; test: In vivo apoptosis assay; design: species or system C57BL/6 mice; conditions: 5.6 mg/kg i.v.; later time points (>24 h)
Procedure: as §3

[10] = test system: 4242Eμ-myc/Bcl-2 lymphomas; test: In vivo apoptosis assay; design: species or system C57BL/6 mice; conditions: 5.6 mg/kg i.v.; later time points (>24 h)
Procedure: as §3

Eμ-myc lymphomas [11] = test: In vivo apoptosis assay; design: species or system C57BL/6 mice; conditions: all four Eμ-myc lymphomas in lymph nodes; 5.6 mg/kg i.v.; 24-h time course
Procedure: as §3

Eμ-myc/Bcl-2 lymphomas [12] = test: In vivo apoptosis assay; design: species or system C57BL/6 mice; conditions: all four Eμ-myc/Bcl-2 lymphomas; 5.6 mg/kg i.v.; 24 h after exposure
Procedure: as §3

Eμ-myc lymphomas [13] = test: In vivo therapy assay (survival); design: species or system C57BL/6 mice; conditions: 5.6 mg/kg i.v. every 4 d, four doses
Procedure: For therapy experiments, Eμ-myc lymphomas were transplanted into C57BL/6 mice and treatment with romidepsin or vehicle commenced when WBC counts in the peripheral blood reached a pathologic threshold (>13×10^3/μL).
For in vivo apoptosis assays, C57BL/6 mice were injected with Eμ-myc lymphomas (5×10^5 cells per animal) and after 10 to 15 days on which lymph nodes became well-palpable romidepsin (5.6 mg/kg) was administered i.v. After the indicated time points, mice were sacrificed and cells were harvested from brachial lymph nodes for fluorescence-activated cell sorting-based assays to measure apoptotic signaling (Lindemann et al., Proc. Nat. Acad. Sci. USA 104:8071-8078, 2007). To assess therapeutic efficacy of romidepsin, C57BL/6 mice were injected with Eμ-myc lymphomas of the indicated genotypes i.v. (5×10^5 cells per animal). Peripheral WBC counts were then monitored until they exceeded 13×10^3/μL (Sysmex Hematology Analyzer K-1000) and romidepsin was administered at 5.6 mg/kg i.v. once every 4 days for a total of four injections. […] Mice in the control cohort received the corresponding amount of vehicle. Cohorts consisted of 8 to 11 mice each, 2 to 3 independently derived lymphomas per genotype. Peripheral WBC counts and body weights were recorded weekly. […] For analysis of therapeutic efficacy, tumor-induced mortality “events” were recorded. […]

[14] = Maximum tolerated dose in lymphoma-bearing mice; conditions: i.v. once every 4 days for a total of four injections
Procedure: For in vivo apoptosis assays, C57BL/6 mice were injected with Eμ-myc lymphomas (5×10^5 cells per animal) and after 10 to 15 days on which lymph nodes became well-palpable romidepsin (5.6 mg/kg) was administered i.v. After the indicated time points, mice were sacrificed and cells were harvested from brachial lymph nodes for fluorescence-activated cell sorting-based assays to measure apoptotic signaling (Lindemann et al., Proc. Nat. Acad. Sci. USA 104:8071-8078, 2007). To assess therapeutic efficacy of romidepsin, C57BL/6 mice were injected with Eμ-myc lymphomas of the indicated genotypes i.v. (5×10^5 cells per animal). Peripheral WBC counts were then monitored until they exceeded 13×10^3/μL (Sysmex Hematology Analyzer K-1000) and romidepsin was administered at 5.6 mg/kg i.v. once every 4 days for a total of four injections. […] Mice in the control cohort received the corresponding amount of vehicle. Cohorts consisted of 8 to 11 mice each, 2 to 3 independently derived lymphomas per genotype. Peripheral WBC counts and body weights were recorded weekly. On signs of major distress or when lymphomas were relapsing as indicated by enlarged brachioaxial lymph nodes, mice were euthanized and a necropsy was done. For analysis of therapeutic efficacy, tumor-induced mortality “events” were recorded. […]

**Q.** Which results are given for “(1S,4S,10S,16E,21R)-7-[(2Z)-ethylidene]-4,21-diisopropyl-2-oxa-12,13-dithia-5,8,20,23-tetraazabicyclo[8.7.6]tricos-16-ene-3,6,9,19,22-pentanone [Romidepsin]”?
**A.** cell killing (outer cell membrane damage, loss of mitochondrial membrane potential) (Eμ-myc/Bcl-2 lymphomas [1]): but not Eμ-myc/Bcl-2 lymphomas; cell killing in time course [2]: could kill; cell killing in time course ([3]; 3.0 nmol/L, up to 72 h): could kill; DNA fragmentation (sub-G1) indicative of apoptosis ([3]; over 3 days, data not shown): increase in the percentage of cells showing DNA fragmentation; cell killing in time course [4]: remained relatively insensitive; plasma membrane integrity and mitochondrial function ([5]; increasing concentrations over 24 h): unaffected; cell cycle analysis ([5]; increasing doses): arrested in the G1 phase; histone acetylation ([6]; 226Eμ-myc/Bcl-2 lymphomas): equivalent increase in histone acetylation; acetylation of histones H3 and H4 ([6]; 4242Eμ-myc lymphomas, 3.0 nmol/L romidepsin, 0.1 mmol/L oxamflatin, 24-h time course): induced equivalent acetylation of histones H3 and H4; histone acetylation ([6]; 4242Eμ-myc/Bcl-2 lymphomas): equivalent increase in histone acetylation; apoptosis in vivo [7]: remained insensitive; apoptosis in vivo [8]: remained insensitive; apoptosis in vivo [9]: did undergo apoptosis at later time points; apoptosis in vivo [10]: did undergo apoptosis at later time points; apoptosis in vivo (outer cell membrane damage, DNA fragmentation) (Eμ-myc lymphomas [11]): sensitive to romidepsin; apoptosis in vivo (Eμ-myc/Bcl-2 lymphomas [12]): resistant to romidepsin-induced apoptosis; survival of mice compared with vehicle-treated mice (Eμ-myc lymphomas [13]): significantly extended; maximum tolerated dose [14]: 5.6 mg/kg
